The values below are quoted from earlier work in patent publication US20230381158A1, “COMPOSITIONS FOR THE TREATMENT OF NON-ALCOHOLIC FATTY LIVER DISEASE AND NON-ALCOHOLIC STEATOHEPATITIS” (LUMOS PHARMA, INC., priority 2018, published 2023).

Where a name gives a salt, the structure may show the parent alone. Ends that are not written are not given here.

In one series the test system is subjects. To be noted: 12 subjects treated for 24 weeks.
Another series deals with Type 2 diabetic patients. To be noted: Type 2 diabetic patients on metformin and/or a sulphonylurea agent, 12 week treatment.
In another series the test system is NAFLD patients. To be noted: 24 week study, 50 NAFLD patients, versus placebo.
In the next series the test system is GH/IGF-1 axis. To be noted: in vivo.
For series [1] the following is noted: FDA warning.
Series [2] has as its system adults NASH without diabetes and cirrhosis. To be noted: 800 mg/day, versus placebo.
Another series deals with NASH patients. To be noted: 300 mg/day for more than 2 years, Japan.
A further series relates to adult NASH patients. To be noted: 1 year treatment, adult NASH patients refractory to dietary intervention.
For series [3] the following is noted: long-term or high-dose use; several conflicting results exist.
For series [4] the following is noted: five studies.
The mark [5] stands for this setting: compared with the control group.

Take `N[C@@H](CC(=O)N1CCn2c(nnc2C(F)(F)F)C1)Cc1cc(F)c(F)cc1F` [sitagliptin]: in the series with subjects, the fibrosis entry is reported as “no improvement”. Moreover, the “hepatic steatosis or fibrosis” value with Type 2 diabetic patients is reported as “neither treatment reduced hepatic steatosis or fibrosis”. For the same molecule, the reducing liver fat entry in the series on NAFLD patients is “no better than placebo”.

Consider “ghrelin (GSSFLSPEHQRVQQRKESKKPPAKLQPR; ends and bridges not checked; UniProt Q9UBU3 24-51, looked up) [hormone produced in the gastrointestinal tract that modulates GH]”, for which the “insulin release from pancreatic […]-cells” value in the series on pancreatic […]-cells is listed as “inhibits insulin release”.

`CC(C)(N)C(=O)N[C@H](COCc1ccccc1)C(=O)N1CCC2(CC1)CN(S(C)(=O)=O)c1ccccc12` [ibutamoren, ibutamoren mesylate]: in the series on pancreatic […]-cells, the “glucose stimulated insulin secretion” value is “does not suppress”. In the series on obese individuals, the GH secretion entry is listed as “enhance GH secretion”, the lean body mass entry is given as “increase lean body mass” and the “serum IGF-1” value was “increase serum IGF-1”. Moreover, in the series on GH/IGF-1 axis, the “amplitude of pulsatile release of endogenous GH” value is given as “enhances”.

Turning to `CCc1ccc(CCOc2ccc(CC3SC(=O)NC3=O)cc2)nc1` (centres unmarked) [pioglitazone], in [1], the “risk of bladder cancer” value was “may be linked to an increased risk of bladder cancer”.

Take vitamin E: in series [2], the “improvements of NASH histology” value is reported as “superior to placebo”. In addition, the hepatic fibrosis result in the series with NASH patients was “can ameliorate hepatic fibrosis”. Besides, in the series on adult NASH patients, the TGF-β1 result is “reduced” and the serum transaminase activities result is given as “reduced”. In [3], the “all-cause mortality, prostatic cancer, hemorrhagic stroke” value was “may increase”. In addition, in [4] (setting [5]), the hepatic steatosis result is “significantly reduced”, the hepatocellular ballooning result is “significantly reduced”, the inflammation entry is given as “significantly reduced” and the serum hepatobiliary enzymes result was “significantly reduced”. Moreover, in [4], the fibrosis improvement entry is listed as “not confirmed”.
